{"source": "patent US11203582B2", "about": "“Benzamide derivatives for inhibiting endoplasmic reticulum (ER) stress” (The Board of Regents of the University of Oklahoma, priority 2017, dated 2021)", "key": {"GRP94 mRNA": {"tested_on": "GRP94 mRNA", "assay": "qRT-PCR of GRP94 mRNA in Tm-treated INS-1 cells", "type": "cell-based, rat", "details": "Tm 0.1 μg/mL co-treatment, 8 h", "protocol": "INS-1 cells were treated with or without Tm (0.1 μg/mL) in the presence of 13d or DMSO for 8 h. Bip (A) and GRP94 (B) mRNA levels were analyzed by qRT-PCR. Relative mRNA levels were normalized against the housekeeping gene Cyclophilin A using the comparative CT method. The results are the means of 3 replicate wells and representative of 3 independent experiments. ** P<0.01 compared with Tm treatment alone. Error bars indicate SD.\nWe then investigated the effects of 13d on the activation of ATF6 in β-cells under ER stress. Activated ATF6 acts as a homodimer or as an ATF6-XBP1s heterodimer to control the up-regulation of select UPR target genes including the chaperone proteins BiP and GRP94. Therefore, these two chaperone proteins were evaluated in the INS-1 cells in the presence of Tm.\nINS-1 cells were seeded at 4×10^5 cells/well in 6-well plates and treated with compounds for the indicated times. Total RNA was extracted using TRIzol reagent (Invitrogen, Carlsbad, Calif.) according to the manufacturer's protocol, and 2 μg of total RNA was reverse transcribed using a Superscript kit (Invitrogen). […] Relative mRNA levels were normalized against the housekeeping gene Cyclophilin A and were determined by ΔΔCt calculated from the difference in ΔCt values between the target gene and Cyclophilin A with and without treatment, based on comparative CT (cycle threshold) method. […]"}, "INS-1 cells": {"tested_on": "INS-1 cells", "assay": "Glucose-stimulated insulin secretion (ELISA) in Tm-treated INS-1 cells", "type": "cell-based, rat", "details": "Tm 0.1 μg/mL, 24 h, 20 mM glucose", "protocol": "(A-D) INS-1 cells were treated with or without Tm (0.1 m/mL) in the presence of 13d at indicated concentrations or DMSO for 24 h. The mRNA levels of INS1 (A), INS2 (B), PDX1 (C), and MafA (D), were analyzed by qRT-PCR. Relative mRNA levels were normalized against the housekeeping gene Cyclophilin A using the comparative CT method. The results are the means of 3 replicate wells and are representative of 3 independent experiments. * P<0.05 and ** P<0.01 compared with Tm treatment alone. Bars indicate SD. (E) Insulin secretion by INS-1 cells incubated with 1.7 mM and 20 mM glucose in the presence or absence of Tm (0.1 μg/mL) and 13d. Secreted insulin was measured by ELISA after 24 h treatment. * P<0.05. The amount of insulin secreted in response to 1.7 mM glucose in the absence of Tm was set to 1.0 and was normalized with total protein concentration.\nINS-1 or primary human islet cells were plated in 96-well plates. The second day, Tm and test compound were added and maintained for 24 h (INS-1) or 48 h (human islets). […] The secreted insulin was measured with insulin ELISA kits (for mouse insulin from Millipore and for human insulin from LifeTech). Cells were lysed with RIPA buffer (50 mM Tris HCl pH 7.4, 1% NP-40, 0.25% sodium deoxycholate, 150 mM NaCl), and total cellular protein was determined with a Bradford protein assay. […]"}, "[1]": {"tested_on": "STZ-induced diabetic mouse model", "assay": "Streptozotocin (STZ)-induced diabetic mouse model", "type": "in vivo, C57BL/6 mice", "protocol": "(A) Fasting blood glucose levels were measured in STZ-injected mice treated with vehicle control (n=6) or 13d (n=7). C57BL/6J mice were injected intraperitoneally once daily for 5 days with STZ (50 mg/kg body weight) and with either vehicle (n=6 mice) or 13d (5 mg/kg body weight; n=7 mice). Injections of vehicle or 13d alone were then continued for 2 more weeks. (B) Glucose tolerance test. Blood glucose levels measured at indicated time points after intraperitoneal injection of glucose (2 g/kg body weight). (C) Pancreases were sectioned and slides were stained with anti-insulin antibody (green, β-cell marker), anti-glucagon antibody (red, α-cell marker), and DAPI (blue). Slides were imaged with an Olympus FV1000 confocal microscope. Representative images are shown in (C). (D) Quantification of total islet area per section and β-cell number per islet. Total area of all islets per section calculated for a total of six sections using insulin-positive cells to demarcate islets. Data are the means±SEM of six sections from three mice. *p<0.05 **p<0.01, and ***p<0.001 by Student's t-test.\nWe next evaluated the in vivo efficacy of 13d using a streptozotocin (STZ)-induced diabetic mouse model. STZ induces ER stress in β-cells in addition to the increase in reactive oxygen species (ROS) production and DNA alkylation. C57BL/6 mice injected intraperitoneally with low dose STZ (50 mg/kg) once daily for 5 consecutive days develop diabetes; blood glucose levels increased gradually within a week of STZ treatment.\nAll procedures involving animals were performed in accordance with the protocol approved by the University of Oklahoma Health Science Center Institutional Animal Care and Use Committee (IACUC). C57BL/6 mice were obtained from The Jackson Laboratory (Bar Harbor, Me.) and maintained on a 12 h light (6:00 AM-6:00 PM)-12 h dark (6:00 PM-6:00 AM) cycle at an ambient temperature of 21° C. Mice were given free access to water and food. All experiments were performed with age-matched male mice. Compounds were dosed during light cycle. For streptozotocin (STZ)-induced diabetic model, ten-week-old C57BL/6 mice were injected intraperitoneally (i.p.) once daily for five days with STZ (dissolved in Na-Citrate Buffer; 50 mg/kg) and either 13d (5 mg/kg body weight; 2 mg/ml in 10% DMSO in saline buffer; n=7 mice) or vehicle (n=6 mice). Injections of vehicle or 13d alone were then continued for 2 more weeks. Every third day, animals were fasted for 5 h and blood was obtained by tail snip. Blood glucose levels were measured using a glucometer (Nova Statstrip Xpress; Data Science International, St. Paul, Minn.). At the end of the treatment period, mice were sacrificed and the pancreases were removed, fixed in formalin, and paraffin-embedded. Tissue blocks were serially sectioned at intervals of 100 μm and 6 sections were stained with an anti-insulin antibody (A0564, 1:500 dilution; Dako), anti-glucagon antibody (G2654, 1:500 dilution; Sigma), and DAPI (0.5 μg/ml). Insulin-positive cells were used to demarcate islets, and the total islet area was measured with an Olympus FV1000 confocal microscopy and quantified with Image-J histogram software."}}, "data": [{"smiles": "O=C(NCc1ccc(C(F)(F)F)cc1)c1cccc(CN2CCCCC2)c1", "note": "[Compound 13d, N-(4-trifluoromethylphenmethyl)-3-(N-piperidinyl)methyl benzamide]", "values": [{"measurement": "Tm-induced up-regulation of GRP94 mRNA", "setting": "GRP94 mRNA", "result": "almost completely reversed"}, {"measurement": "glucose-stimulated insulin secretion (GSIS) in Tm-treated cells", "setting": "INS-1 cells", "result": "significantly rescued"}, {"measurement": "total pancreatic islet β-cell area compared to vehicle-treated mice", "setting": "[1]; STZ mice, 5 mg/kg", "result": "more than double"}, {"measurement": "fasting blood glucose level", "setting": "[1]; STZ mice, 5 mg/kg i.p. once daily, after 3 weeks of treatment", "result": 314, "unit": "mg/dL"}, {"measurement": "total pancreatic islet β-cell area", "setting": "[1]; STZ mice, 5 mg/kg, pancreatic sections at end of treatment", "result": "67.4±5.9", "unit": "%"}, {"measurement": "average number of α-cells", "setting": "[1]; STZ mice, 5 mg/kg, vehicle vs 13d groups", "result": "no obvious effect"}, {"measurement": "intraperitoneal glucose tolerance test, blood glucose vs vehicle-treated STZ group", "setting": "[1]; overnight fasted STZ mice, 5 mg/kg, glucose 2 g/kg i.p.", "result": "lower blood glucose levels at 15, and 30 min"}]}]}
